From ChEMBL document CHEMBL2177008, “Discovery of benzodiazepine sulfonamide-based bombesin receptor subtype 3 agonists and their unusual chirality” (ACS Med Chem Lett, 2011)
pEC50, pIC50: −log10 of the molar value. Active and inactive are the calls of the source. The rule behind the calls is not given here.

Columns and labels:
[1] = target: T1, Bombesin receptor subtype-3 (Mus musculus) (UniProt O54798); assay: Agonist activity at mouse BRS3 expressed in HEK293 cells expressing aequorin measured for 30 secs by bioluminescence assay relative to [125I]-[D-Tyr6,beta-Ala11,Phe13,Nle14]-Bombesin(6-14); assay type: functional, cell-based
T1 sequence (whole entry): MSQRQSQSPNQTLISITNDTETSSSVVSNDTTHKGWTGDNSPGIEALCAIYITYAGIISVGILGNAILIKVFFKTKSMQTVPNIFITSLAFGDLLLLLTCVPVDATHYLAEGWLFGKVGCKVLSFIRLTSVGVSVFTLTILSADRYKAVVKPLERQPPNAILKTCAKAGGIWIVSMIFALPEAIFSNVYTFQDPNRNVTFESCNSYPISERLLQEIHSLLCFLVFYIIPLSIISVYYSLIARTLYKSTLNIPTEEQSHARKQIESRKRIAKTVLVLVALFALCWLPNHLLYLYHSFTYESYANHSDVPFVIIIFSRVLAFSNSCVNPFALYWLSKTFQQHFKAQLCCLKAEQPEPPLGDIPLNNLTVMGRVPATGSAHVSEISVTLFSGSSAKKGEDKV

[2] = target: T2, Bombesin receptor subtype-3 (Homo sapiens, UniProt P32247); assay: Agonist activity at human BRS3 expressed in HEK293 cells expressing aequorin measured for 30 secs by bioluminescence assay; assay type: functional, cell-based
T2 sequence (P32247 whole entry): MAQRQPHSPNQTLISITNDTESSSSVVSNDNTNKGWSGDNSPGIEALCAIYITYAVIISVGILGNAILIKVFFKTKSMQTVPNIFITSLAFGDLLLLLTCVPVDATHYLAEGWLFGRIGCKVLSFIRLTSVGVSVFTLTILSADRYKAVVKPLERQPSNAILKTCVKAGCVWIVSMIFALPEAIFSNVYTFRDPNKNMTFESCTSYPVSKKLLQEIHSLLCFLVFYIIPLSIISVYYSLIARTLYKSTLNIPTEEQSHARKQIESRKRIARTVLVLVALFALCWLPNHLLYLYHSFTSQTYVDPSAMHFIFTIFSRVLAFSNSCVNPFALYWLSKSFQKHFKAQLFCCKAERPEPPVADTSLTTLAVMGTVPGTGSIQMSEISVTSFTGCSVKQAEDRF

[3] = target: T2, Bombesin receptor subtype-3; assay: Displacement of [125I]-[D-Tyr6,beta-Ala11,Phe13,Nle14]-Bombesin(6-14) from human BRS3 expressed in CHO cells expressing NFAT after 2 hrs by liquid scintillation counting; assay type: cell-based
[4] = target: T3, Bombesin receptor subtype-3 (Mus musculus, UniProt O54798); assay: Agonist activity at mouse BRS3 expressed in HEK293 cells expressing aequorin measured for 30 secs by bioluminescence assay; assay type: functional, cell-based
T3 sequence (O54798 whole entry): T1 sequence (whole entry)

[5] = tested on: Rattus norvegicus; assay: Dose normalized AUC in Sprague-Dawley rat at 4 mg/kg, po; assay type: ADME, organism-based; design: dose 4 mg/kg, route oral; settings: in vivo
[6] = Plasma clearance in Sprague-Dawley rat at 1 mg/kg, iv; assay type: ADME, organism-based; design: dose 1 mg/kg, route intravenous
[7] = Oral bioavailability in Sprague-Dawley rat at 4 mg/kg; assay type: ADME, organism-based; settings: in vivo
[8] = Half life in Sprague-Dawley rat at 1 mg/kg, iv; assay type: ADME, organism-based; design: dose 1 mg/kg, route intravenous; settings: in vivo
[9] = Agonist activity at rhesus monkey BRS3; assay type: functional, Macaca mulatta
[10] = Displacement of [125I]-[D-Tyr6,beta-Ala11,Phe13,Nle14]-Bombesin(6-14) from rhesus monkey BRS3; design: species or system Macaca mulatta
[11] = Inhibition of calcium channel Diltiazem hydrochloride binding site
[12] = Displacement of [125I]-[D-Tyr6,beta-Ala11,Phe13,Nle14]-Bombesin(6-14) from dog BRS3; design: species or system Canis lupus familiaris
[13] = organism: Macaca mulatta; assay: Agonist activity at rhesus monkey BRS3 relative to [125I]-[D-Tyr6,beta-Ala11,Phe13,Nle14]-Bombesin(6-14); assay type: functional
[14] = target: T2, Bombesin receptor subtype-3; assay: Agonist activity at human BRS3 expressed in HEK293 cells expressing aequorin measured for 10 mins by bioluminescence assay
[15] = target: Voltage-gated inwardly rectifying potassium channel KCNH2 (Homo sapiens, UniProt Q12809); assay: Inhibition of human ERG
Voltage-gated inwardly rectifying potassium channel KCNH2, sequence (Q12809 whole entry): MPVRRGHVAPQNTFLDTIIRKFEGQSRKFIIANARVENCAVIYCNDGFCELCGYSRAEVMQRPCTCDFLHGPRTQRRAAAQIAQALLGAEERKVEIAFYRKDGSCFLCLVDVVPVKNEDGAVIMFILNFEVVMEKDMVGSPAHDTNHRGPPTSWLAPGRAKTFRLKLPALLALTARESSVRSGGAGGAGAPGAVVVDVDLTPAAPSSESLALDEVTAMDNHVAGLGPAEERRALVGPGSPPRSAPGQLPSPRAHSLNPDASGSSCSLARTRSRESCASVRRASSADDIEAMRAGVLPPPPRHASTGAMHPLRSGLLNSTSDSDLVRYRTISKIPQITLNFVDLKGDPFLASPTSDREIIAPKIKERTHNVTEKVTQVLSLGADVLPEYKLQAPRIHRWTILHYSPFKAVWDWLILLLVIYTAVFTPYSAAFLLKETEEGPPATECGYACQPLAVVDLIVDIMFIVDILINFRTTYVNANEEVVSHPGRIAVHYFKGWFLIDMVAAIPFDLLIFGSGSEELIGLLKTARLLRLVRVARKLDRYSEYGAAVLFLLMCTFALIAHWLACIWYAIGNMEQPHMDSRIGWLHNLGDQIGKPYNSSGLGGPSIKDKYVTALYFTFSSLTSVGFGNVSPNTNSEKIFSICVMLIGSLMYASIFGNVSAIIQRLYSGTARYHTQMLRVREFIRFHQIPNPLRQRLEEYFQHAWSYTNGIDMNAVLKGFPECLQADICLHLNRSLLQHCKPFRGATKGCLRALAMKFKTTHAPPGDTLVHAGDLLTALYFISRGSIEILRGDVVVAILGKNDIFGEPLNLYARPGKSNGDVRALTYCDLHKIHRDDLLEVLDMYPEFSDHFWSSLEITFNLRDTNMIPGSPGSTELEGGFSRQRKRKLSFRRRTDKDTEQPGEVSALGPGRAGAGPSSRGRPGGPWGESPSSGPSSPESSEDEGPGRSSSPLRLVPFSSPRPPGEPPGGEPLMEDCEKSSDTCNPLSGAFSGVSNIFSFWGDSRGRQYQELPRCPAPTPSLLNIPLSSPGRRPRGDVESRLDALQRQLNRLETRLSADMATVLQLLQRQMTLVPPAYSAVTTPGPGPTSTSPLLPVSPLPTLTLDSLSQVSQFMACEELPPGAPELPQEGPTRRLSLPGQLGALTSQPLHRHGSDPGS

[16] = Half life in rhesus monkey; assay type: ADME, organism-based, Macaca mulatta; settings: in vivo
[17] = target: T4, PXR (Homo sapiens, UniProt O75469); assay: Activation of human PXR at 10 uM relative to control; settings: read-out: Activity
T4 sequence (O75469 whole entry): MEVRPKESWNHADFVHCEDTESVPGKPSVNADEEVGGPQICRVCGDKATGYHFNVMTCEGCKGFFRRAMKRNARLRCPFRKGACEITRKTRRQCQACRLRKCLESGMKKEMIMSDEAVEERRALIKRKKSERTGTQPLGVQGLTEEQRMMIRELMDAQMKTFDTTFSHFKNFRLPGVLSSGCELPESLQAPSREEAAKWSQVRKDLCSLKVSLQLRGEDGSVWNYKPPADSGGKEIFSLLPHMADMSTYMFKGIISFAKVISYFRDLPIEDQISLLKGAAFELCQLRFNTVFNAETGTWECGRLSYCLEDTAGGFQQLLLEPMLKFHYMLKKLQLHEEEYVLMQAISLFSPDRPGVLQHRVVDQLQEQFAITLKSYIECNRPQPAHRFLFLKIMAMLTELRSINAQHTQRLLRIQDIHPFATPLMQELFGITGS

[18] = tested on: Mus musculus; assay: Antiobesity activity in po dosed diet-induced obese wild type C57 mouse assessed as body weight loss administered 60 mins prior to dark cycle onset measured after 18 hrs; assay type: functional, organism-based
[19] = Agonist activity at dog BRS3; assay type: functional, Canis lupus familiaris
[20] = Oral bioavailability in rhesus monkey; assay type: ADME, organism-based, Macaca mulatta; settings: in vivo
[21] = organism: Canis lupus familiaris; assay: Agonist activity at dog BRS3 relative to [125I]-[D-Tyr6,beta-Ala11,Phe13,Nle14]-Bombesin(6-14); assay type: functional
[22] = target: T5, Nuclear receptor subfamily 1 group I member 2 (Homo sapiens, UniProt O75469); assay: Activation of human PXR
T5 sequence (O75469 whole entry): T4 sequence (O75469 whole entry)

[23] = tested on: Mus musculus; assay: Antiobesity activity in po dosed diet-induced obese wild type C57 mouse assessed as reduction in food intake administered 60 mins prior to dark cycle onset measured after 18 hrs; assay type: functional, organism-based
[24] = tested on: Mus musculus; assay: Antiobesity activity in diet-induced obese […] knock-out C57 mouse assessed as reduction in food intake at 3 and 30 mg/kg, po administered 60 mins prior to dark cycle onset measured after 18 hrs; assay type: functional, organism-based; design: dose 30 mg/kg
[25] = tested on: Mus musculus; assay: Antiobesity activity in diet-induced obese wild type C57 mouse assessed as weight loss at 3 mg/kg, po administered QD 60 mins prior to dark cycle onset relative to control; assay type: functional

| SMILES | max activation [1] | pEC50 [2] | pIC50 [3] | pEC50 [4] | further results |
| --- | --- | --- | --- | --- | --- |
| Cc1ccc2c(c1C)N(S(=O)(=O)c1ccc(C(C)(C)F)cc1)Cc1ccc(C(F)(F)F)nc1N2 | 108% | 7.16 | 8.24 | 6.70 | – |
| CC(C)(C)c1ccc(S(=O)(=O)N2Cc3ccc(C(F)(F)F)nc3Nc3ccccc32)cc1 | 98% | 6.96 | 8.26 | 6.79 | – |
| Cc1ccc2c(c1C)N(S(=O)(=O)c1ccc(C(C)(C)C#N)cc1)Cc1ccc(C(F)(F)F)nc1N2 | 83% | 7.22 | 8.24 | 7.10 | – |
| CC(C)(C)c1ccc(S(=O)(=O)N2Cc3ccc(C(F)(F)F)nc3Nc3cccc(Cl)c32)cc1 | 100% | 7.20 | 8.49 | 6.81 | AUC/dose [5]: 0.26 µM·kg·h/mg; clearance [6]: 46 mL/min/kg; bioavailability [7]: 34%; half-life [8]: 1.4 h |
| CC(C)(C)c1ccc(S(=O)(=O)N2Cc3ccc(C(F)(F)F)nc3Nc3ccc(C(C)(C)O)c(F)c32)cc1 | 97% | 7.11 | 8.30 | 6.87 | AUC/dose [5]: 0.19 µM·kg·h/mg; clearance [6]: 24 mL/min/kg; bioavailability [7]: 13%; half-life [8]: 3 h |
| CC(C)(C)c1ccc(S(=O)(=O)N2Cc3ccc(C(F)(F)F)nc3Nc3ccc4ncccc4c32)cc1 | 107% | 6.97 | 9.15 | 6.89 | – |
| Cc1ccc2c(c1C)N(S(=O)(=O)c1ccc(C(F)(F)F)s1)Cc1ccc(C(F)(F)F)nc1N2 | 90% | 6.80 | 8.00 | 6.81 | – |
| Cc1ccc2c(c1C)N(S(=O)(=O)c1ccc(OC(F)(F)F)cc1)Cc1ccc(C(F)(F)F)nc1N2 | 103% | 7.37 | 8.48 | 7.10 | – |
| Cc1ccc2c(c1C)N(S(=O)(=O)c1csc(C(F)(F)F)c1)Cc1ccc(C(F)(F)F)nc1N2 | 103% | 6.91 | 7.85 | 7.02 | – |
| Cc1ccc2c(c1C)N(S(=O)(=O)c1ccc(C(C)(C)C)cc1)Cc1ccc(C#N)nc1N2 | 103% | 7.30 | 8.36 | 7.30 | – |
| Cc1ccc2c(c1C)N(S(=O)(=O)c1ccc(C(C)(C)C)cc1)Cc1ccc(Cl)nc1N2 | 105% | 7.42 | 8.92 | 7.01 | – |
| Cc1ccc2c(c1C)N(S(=O)(=O)c1ccc(C(C)(C)C)cc1)Cc1ccc(C(F)(F)F)nc1N2 | 98% | – | – | – | pEC50 [9]: 7.15; pIC50 [10]: 8.52; pIC50 [11]: < 5.00; pIC50 [12]: 8.80; AUC/dose [5]: 0.2 µM·kg·h/mg; max activation [13]: 97%; pEC50 [14]: 7.82; pIC50 [15]: < 5.00; half-life [16]: 1.8 h; activity at 10 µM [17]: 42%; Activity [18]: Dose-dependent effect; pEC50 [19]: 7.44; bioavailability [20]: 17%; clearance [6]: 29 mL/min/kg; max activation [21]: 97%; pEC50 [22]: 6.17; bioavailability [7]: 15%; Activity [23]: Dose-dependent effect; half-life [8]: 1.6 h; Activity [24]: inactive |
| Cc1ccc2c(c1C)Nc1nc(C(F)(F)F)ccc1CN2S(=O)(=O)c1ccc(C(C)(C)C)cc1 | – | < 5.00 | – | < 5.00 | – |
| Cc1ccc2c(c1C)N(S(=O)(=O)c1ccc(C(F)(F)F)cc1)Cc1ccc(C(F)(F)F)nc1N2 | 100% | 6.81 | 8.17 | 7.10 | – |
| CC(C)(C)c1ccc(S(=O)(=O)N2Cc3ccc(C(F)(F)F)nc3Nc3cccc(O)c32)cc1 | 115% | 7.06 | 8.66 | 6.68 | – |
| Cc1cccc2c1N(S(=O)(=O)c1ccc(C(C)(C)C)cc1)Cc1ccc(C(F)(F)F)nc1N2 | 106% | 7.30 | 9.05 | 6.92 | AUC/dose [5]: 0.13 µM·kg·h/mg; clearance [6]: 38 mL/min/kg; bioavailability [7]: 14%; half-life [8]: 1.6 h |
| Cc1ccc2c(c1C)N(S(=O)(=O)c1ccc(C(C)(C)C)cc1)Cc1cc(F)c(Cl)nc1N2 | 82% | 6.56 | 8.05 | 6.43 | – |
| Cc1ccc2c(c1C)N(S(=O)(=O)c1ccc(S(C)(=O)=O)cc1)Cc1ccc(C(F)(F)F)nc1N2 | 46% | 6.27 | 7.14 | 6.25 | – |
| Cc1ccc2c(c1C)N(S(=O)(=O)c1ccc(C(C)C)cc1)Cc1ccc(C(F)(F)F)nc1N2 | 110% | 7.31 | 8.80 | 7.08 | AUC/dose [5]: 0.24 µM·kg·h/mg; clearance [6]: 16 mL/min/kg; bioavailability [7]: 10%; half-life [8]: 3.5 h |
| Cc1ccc2c(c1C)N(S(=O)(=O)c1ccc(C(C)(C)C)cc1)Cc1cccnc1N2 | 101% | 6.49 | 7.40 | 6.61 | AUC/dose [5]: 0.007 µM·kg·h/mg; clearance [6]: 164 mL/min/kg; bioavailability [7]: 1%; half-life [8]: 1.6 h |
| Cc1ccc2c(c1)N(S(=O)(=O)c1ccc(C(C)(C)C)cc1)Cc1ccc(C(F)(F)F)nc1N2 | 82% | 6.70 | 8.24 | 6.42 | AUC/dose [5]: 0.31 µM·kg·h/mg; clearance [6]: 24 mL/min/kg; bioavailability [7]: 22%; half-life [8]: 2.2 h |
| Cc1ccc2c(n1)Nc1ccc(C)c(C)c1N(S(=O)(=O)c1ccc(C(C)(C)C)cc1)C2 | 107% | 6.88 | 8.00 | 6.63 | – |
| Cc1c(C(=O)NN2CCCCC2)nn(-c2ccc(Cl)cc2Cl)c1-c1ccc(I)cc1 | – | – | – | – | Activity [25]: 6.2% |
| Cc1ccc2c(n1)N(S(=O)(=O)c1ccc(C(C)(C)C)cc1)Cc1ccc(C(F)(F)F)nc1N2 | 112% | 6.96 | – | 6.77 | – |
| Cc1ccc2c(c1C)N(S(=O)(=O)c1ccc(C(C)(C)C)cc1)Cc1cc(Cl)cnc1N2 | – | < 5.00 | 6.37 | < 5.00 | – |
